“And” between values parts separate entries of the source, which are not always exact repeats. Equal values may be shown once.
Assays:
[1] = target: rRyR1 (Oryctolagus cuniculus, UniProt P11716); assay: time-lapse [Ca2+]ER fluorescence assay, HEK293 cells; assay type: cell-based, rabbit
[2] = target: Sf RyR (Spodoptera frugiperda, UniProt A0A4P8L6R5); assay: as above; assay type: cell-based
[3] = target: T1, chiRyR (Oryctolagus cuniculus, UniProt P11716, C4657I/F4564Y/L4792S/R4563K); assay: cell-based; parameters: species or system rabbit
[4] = target: T2, rRyR1 R4563K (Oryctolagus cuniculus, UniProt P11716, R4563K); assay: time-lapse [Ca2+]ER fluorescence assay, HEK293 cells; assay type: cell-based, rabbit; settings: n = 3
T2 construct: expressed in transfected cells

[5] = target: T3, rRyR1 F4564Y (Oryctolagus cuniculus, UniProt P11716, F4564Y); assay: as above; assay type: cell-based, rabbit; settings: n = 3
T3 construct: expressed in transfected cells

[6] = target: T4, rRyR1 C4657I (Oryctolagus cuniculus, UniProt P11716, C4657I); assay: as above; assay type: cell-based, rabbit; settings: n = 3
T4 construct: expressed in transfected cells

[7] = target: T5, rRyR1 L4792S (Oryctolagus cuniculus, UniProt P11716, L4792S); assay: as above; assay type: cell-based, rabbit; settings: n = 3
T5 construct: expressed in transfected cells

[8] = target: T6, chiRyR-I4657M/G4819E (Oryctolagus cuniculus, UniProt P11716, C4657M/F4564Y/G4819E/L4792S/R4563K); assay: cell-based; parameters: species or system rabbit
[9] = target: Sf RyR_I4734M/G4891E (Spodoptera frugiperda, UniProt A0A4P8L6R5, G4891E/I4734M); assay: cell-based
[10] = target: T1, chiRyR; assay: biochemical; assay type: biochemical, rabbit
[11] = target: T6, chiRyR-I4657M/G4819E; assay: biochemical; assay type: biochemical, rabbit
[12] = test system: Drosophila melanogaster RyR M4758I; assay: Bioassay of gene-edited Drosophila melanogaster (feeding, mortality after 24 h); assay type: in vivo; settings: for death rate: 24 h
[13] = test system: Drosophila melanogaster RyR G4915E; assay: as above; assay type: in vivo; settings: for death rate: 24 h
[14] = solubility comparison; assay type: physicochemical
[15] = test system: Spodoptera frugiperda; parameters: method as in PMID 31157506; settings: in vivo; cited from earlier work

CNC(=O)c1cc(Cl)cc(C)c1NC(=O)c1cc(Br)nn1-c1ncccc1Cl [CHL, chlorantraniliprole]
EC50 [1]: 4900 nM | F/F0 ([2]; CHL 1e-5 uM): 0.9606 and 0.9752 and 0.9813 | F/F0 ([2]; CHL 0.001 uM): 1.004 and 1.002 and 1.001 | F/F0 ([2]; CHL 0.005 uM): 0.7229 and 0.7431 and 0.7294 | F/F0 ([2]; CHL 0.01 uM): 0.3097 and 0.3094 and 0.2868 | F/F0 ([2]; CHL 0.1 uM): 0.2582 and 0.2663 and 0.2776 | F/F0 ([2]; CHL 0.5 uM): 0.268 and 0.2944 and 0.2596 | F/F0 ([2]; CHL 1 uM): 0.2734 and 0.2934 and 0.2867 | F/F0 ([2]; CHL 10 uM): 0.2774 and 0.2809 and 0.2932 | F/F0 ([2]; CHL 50 uM): 0.2939 and 0.2698 and 0.3129 | EC50 ([2]; n = 3, read-out: EC50): 5.5 nM | EC50 [3]: 1.6 nM | F/F0 ([3]; CHL 1e-5 uM): 0.9477 and 0.9176 and 0.9126 | F/F0 ([3]; CHL 2.5e-5 uM): 0.9199 and 0.9229 and 0.931 | F/F0 ([3]; CHL 5e-5 uM): 0.8883 and 0.929 and 0.9092 | F/F0 ([3]; CHL 0.0001 uM): 0.9049 and 0.9411 and 0.8175 | F/F0 ([3]; CHL 0.00025 uM): 0.8945 and 0.8973 and 0.8398 | F/F0 ([3]; CHL 0.0005 uM): 0.6917 and 0.6365 and 0.6304 | F/F0 ([3]; CHL 0.0025 uM): 0.5122 and 0.4849 and 0.4622 | F/F0 ([3]; CHL 0.005 uM): 0.6454 and 0.5393 and 0.4867 | F/F0 ([3]; CHL 0.01 uM): 0.4912 and 0.5046 and 0.4772 | F/F0 ([3]; CHL 0.025 uM): 0.5158 and 0.4751 and 0.4992 | F/F0 ([3]; CHL 0.05 uM): 0.5374 and 0.5173 and 0.549 | F/F0 ([3]; CHL 0.1 uM): 0.4915 and 0.5257 and 0.4507 | F/F0 ([3]; CHL 1 uM): 0.5356 and 0.5199 and 0.5646 | F/F0 ([3]; CHL 3 uM): 0.5195 and 0.4435 and 0.4631 | F/F0 ([3]; CHL 10 uM): 0.5287 and 0.4905 and 0.48 | F/F0 ([3]; CHL 30 uM): 0.5354 and 0.4682 and 0.4761 | F/F0 ([3]; CHL 50 uM): 0.5799 and 0.4954 and 0.5274 | EC50 [4]: 62.6 nM | EC50 [5]: 556 nM | EC50 [6]: 167 nM | EC50 [7]: 44.8 nM | F/F0 ([8]; CHL 1e-5 uM): 0.8891 and 0.8803 and 0.8832 | F/F0 ([8]; CHL 0.0001 uM): 0.8817 and 0.9289 and 0.9243 | F/F0 ([8]; CHL 0.001 uM): 0.9674 and 0.9402 and 0.9553 | F/F0 ([8]; CHL 0.005 uM): 0.9942 and 0.938 and 0.9411 | F/F0 ([8]; CHL 0.01 uM): 0.9479 and 0.955 and 0.9174 | F/F0 ([8]; CHL 0.1 uM): 0.9465 and 0.9355 and 0.9097 | F/F0 ([8]; CHL 0.3 uM): 0.9306 and 0.9655 and 0.9439 | F/F0 ([8]; CHL 0.5 uM): 0.9145 and 0.8971 and 0.9399 | F/F0 ([8]; CHL 1 uM): 0.9091 and 0.8544 and 0.9005 | F/F0 ([8]; CHL 3 uM): 0.8328 and 0.8713 and 0.8682 | F/F0 ([8]; CHL 10 uM): 0.808 and 0.819 and 0.7565 | F/F0 ([8]; CHL 30 uM): 0.7257 and 0.6335 and 0.5826 | F/F0 ([8]; CHL 50 uM): 0.6512 and 0.5528 and 0.5088 | F/F0 ([8]; CHL 100 uM): 0.5781 and 0.4912 | F/F0 ([8]; CHL 200 uM): 0.6274 and 0.5179 | F/F0 ([8]; CHL 500 uM): 0.5379 and 0.5182 | EC50 ([8]; EC50, diamide insecticides, n = 3): 10300 nM and 14600 nM | EC50 [9]: 9100 nM | F/F0 ([9]; CHL 0.1 uM): 0.9609 and 0.9591 and 1.0034 | F/F0 ([9]; CHL 1 uM): 0.987 and 0.977 and 0.9858 | F/F0 ([9]; CHL 10 uM): 0.5363 and 0.6213 and 0.7359 | F/F0 ([9]; CHL 50 uM): 0.3469 and 0.3845 and 0.4143 | F/F0 ([9]; CHL 100 uM): 0.3178 and 0.3119 and 0.3455 | F/F0 ([9]; CHL 150 uM): 0.3313 and 0.3179 and 0.3624 | F/F0 ([9]; CHL 200 uM): 0.3347 and 0.3244 and 0.3692 | EC50 [10]: 1.7 ± 0.3 nM | [3H]ryanodine binding (B/Bmax) ([10]; CHL 0.010 uM): 0.191 and 0.230 and 0.144 and 0.262 | [3H]ryanodine binding (B/Bmax) ([10]; CHL 0.100 uM): 0.168 and 0.180 and 0.215 | [3H]ryanodine binding (B/Bmax) ([10]; CHL 1.000 uM): 0.199 and 0.219 and 0.215 and 0.312 | [3H]ryanodine binding (B/Bmax) ([10]; CHL 10.000 uM): 0.246 and 0.234 and 0.250 and 0.215 | [3H]ryanodine binding (B/Bmax) ([10]; CHL 100.000 uM): 0.207 and 0.242 and 0.223 and 0.191 | EC50 [11]: 14700 ± 1600 nM | [3H]ryanodine binding (B/Bmax) ([11]; CHL 10.000 uM): 0.114 and 0.077 and 0.068 and 0.062 | [3H]ryanodine binding (B/Bmax) ([11]; CHL 100.000 uM): 0.193 and 0.240 and 0.178 and 0.209 | LD50 ([12]; 24 h feeding, n = 30): 127.9 nM | death rate ([12]; CHL 0.010 uM): 0% | death rate ([12]; CHL 0.033 uM): 0% and 10% | death rate ([12]; CHL 0.100 uM): 60% and 40% | death rate ([12]; CHL 0.333 uM): 80% and 70% | death rate ([12]; CHL 1.000 uM): 100% and 90% | death rate ([12]; CHL 3.333 uM): 100% | death rate ([12]; CHL 10.000 uM): 100% | LD50 ([13]; 24 h feeding, n = 30, heterozygous G4915E/G): 1.6 mM | death rate ([13]; CHL 1.000 uM): 0% | death rate ([13]; CHL 3.333 uM): 0% | death rate ([13]; CHL 10.000 uM): 0% and 10% | death rate ([13]; CHL 33.333 uM): 10% | death rate ([13]; CHL 100.000 uM): 10% and 20% | relative solubility [14]: more soluble than TET | fold decreased sensitivity [15]: 225 fold
